The nature of the data set: pKa of cyan coupler by pH titration (half-neutralization point). In kind it is physicochemical. The note with it: tetrahydrofuran/water 6/4 by volume, solvent mixture of tetrahydrofuran and water 6/4 by volume. On the procedure: The pKa of the coupler can be easily determined by obtaining a pH of a point where neutralization is performed just half on a pH titration curve measured in a solvent mixture of tetrahydrofuran and water in a ratio of 6/4 by volume.

The pKa is the negative logarithm of the acid dissociation constant. For `CCCCCCCCCCCCCCCCNC(=O)c1cc(OCCS(C)(=O)=O)c2ccccc2c1O` [Sample C-4, reference compound], the pKa came to 10.3.

Take `CCCCCCCCCCCCCCOc1ccccc1NC(=O)c1cc(OC(C)=O)c2ccccc2c1O` [Sample C-6]: the pKa was at most 8.7.

As for `CCCCCCCCCCCCc1ccc(S(=O)(=O)c2cc(C(=O)NCCc3ccccc3NC(C)=O)c(O)c3ccccc23)cc1` [Sample C-8], the pKa turned out to be 6.02.

The record behind these values is patent US6495313B2, “Silver halide color photographic light-sensitive material” (Fuji Photo Film Co., Ltd., priority 1997, dated 2002).
